Measured values from ChEMBL document CHEMBL1201862, “PubChem BioAssay data set” (2004).
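Step 1: Grow cells in 96-well plates. Step 2: Expose to compound for 48 hours at 5 concentrations. Step 3: Interpolate endpoints linearly; if unreached, use highest concentration. At the GI50, growth is halved.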 Active and inactive are the calls of the source. No stated cut-off is given here; in the data, active = GI50 up to about 1.1 µM and inactive = higher.

Assays:
Assay in all cases: growth of human tumour cells (NCI), 48 h
786-0 = test system: 786-0
BT-549 = test system: BT-549
DU-145 = test system: DU-145
Hs-578T = test system: Hs-578T
MDA-MB-231 = test system: MDA-MB-231
MDA-N = test system: MDA-N
PC-3 = test system: PC-3
T47D = test system: T47D
RXF 631 = test system: RXF 631

`CC1(C)CCC(C)(C)c2c1ccc(O)c2Cc1c(O)ccc2c1C(C)(C)CCC2(C)C` was tested, and the GI50 (786-0) was 1.92 µM (inactive), the GI50 (BT-549) was 2.33 µM (inactive) and the GI50 (DU-145) was 2.23 µM (inactive). The GI50 (Hs-578T) was 2.84 µM (inactive), the GI50 (MDA-MB-231) was 1.66 µM (inactive) and the GI50 (MDA-N) was 1.92 µM (inactive). For the same compound, the GI50 (PC-3) was 2 µM (inactive) and the GI50 (T47D) was 1.87 µM (inactive).

With `C=CS(=O)(=O)c1c2cc(OC)ccc2nc2ccc(OC)cc12` the GI50 (786-0) was 2.37 µM (inactive), the GI50 (BT-549) was 10.5 µM (inactive) and the GI50 (DU-145) was 3.53 µM (inactive). For the same compound, the GI50 (Hs-578T) was 2.97 µM (inactive), the GI50 (MDA-MB-231) was 15.5 µM (inactive) and the GI50 (MDA-N) was 3.5 µM (inactive). The GI50 (PC-3) was 7.29 µM (inactive) and the GI50 (T47D) was 3.43 µM (inactive).

In the case of `Clc1nc(Cl)nc(Nc2cccc3ccccc23)n1`, the GI50 (DU-145) is reported as > 10 µM (inactive), the GI50 (Hs-578T) is reported as > 10 µM (inactive) and the GI50 (MDA-MB-231) is reported as > 10 µM (inactive). For the same compound, the GI50 (MDA-N) was > 10 µM (inactive), the GI50 (PC-3) was > 10 µM (inactive) and the GI50 (T47D) was > 10 µM (inactive).

For `COC(=O)c1c(O)ccc2c1c1c(n2Cc2cccc(C)c2)C(=O)c2ccccc2C1`, the GI50 (BT-549) was 26.5 µM (inactive), the GI50 (DU-145) was 51.4 µM (inactive) and the GI50 (Hs-578T) was 23.2 µM (inactive). For the same compound, the GI50 (MDA-MB-231) was 13.6 µM (inactive), the GI50 (PC-3) was 9.1 µM (inactive) and the GI50 (T47D) was 0.348 µM (active).

With `COc1ccc(C(=O)Cc2ccc(Cl)cc2)cc1OC` the GI50 (RXF 631) was > 100 µM (inactive).

In the case of `COc1cc(C2c3cc4c(cc3OC3(O)COC(=O)C23)OCO4)cc(OC)c1OC` (configuration not stated), the GI50 (RXF 631) is reported as 49.3 µM (inactive).

With `Cc1cc(Cl)ccc1NC1=NC(=O)C(CC(=O)Nc2cccc(Cl)c2)S1` (configuration not stated) the GI50 (786-0) was 46.8 µM (inactive).

With `C=CCOC1=C(OCC=C)C(C2COC(C)(C)O2)OC1=O` (configuration not stated) the GI50 (786-0) was 67 µM (inactive), the GI50 (BT-549) was > 100 µM (inactive) and the GI50 (DU-145) was > 100 µM (inactive). For the same compound, the GI50 (Hs-578T) was > 100 µM (inactive), the GI50 (MDA-MB-231) was > 100 µM (inactive) and the GI50 (MDA-N) was > 100 µM (inactive). For the same compound, the GI50 (PC-3) was > 100 µM (inactive) and the GI50 (T47D) was > 100 µM (inactive).

In the case of `CC(=O)NNc1nc(C)c(C(=O)NNC(=O)C(=O)Nc2cccc(C(C)=O)c2)s1`, the GI50 (RXF 631) is reported as 26.6 µM (inactive).

For `O=C1NCN(c2ccccc2)C12CCN(CCCN1CCN(CCOC(c3ccc(F)cc3)c3ccc(F)cc3)CC1)CC2`, the GI50 (786-0) was 1.63 µM (inactive), the GI50 (BT-549) was 2.64 µM (inactive) and the GI50 (DU-145) was 1.73 µM (inactive). For the same compound, the GI50 (Hs-578T) was 2.06 µM (inactive), the GI50 (MDA-MB-231) was 2.15 µM (inactive) and the GI50 (MDA-N) was 1.82 µM (inactive). The GI50 (PC-3) was 3.05 µM (inactive) and the GI50 (T47D) was 1.58 µM (inactive).

With `CCCCP1(=O)C=CC(Cl)=C(C)C1` (configuration not stated) the GI50 (786-0) was > 100 µM (inactive).

In the case of `C=CCN(N=O)C(=O)N(CCC)CCCCC(NC(C)=O)C(=O)NCc1ccccc1` (configuration not stated), the GI50 (786-0) is reported as > 100 µM (inactive) and the GI50 (RXF 631) is reported as > 100 µM (inactive).

For `Nc1nc(N)c2c(n1)NC(=O)c1c(c3ccccc3n1Cc1ccc(Cl)cc1)C2`, the GI50 (BT-549) was 24.2 µM (inactive), the GI50 (DU-145) was 14.4 µM (inactive) and the GI50 (Hs-578T) was 24 µM (inactive). The GI50 (MDA-N) was 16.6 µM (inactive), the GI50 (PC-3) was 23 µM (inactive) and the GI50 (T47D) was 16.8 µM (inactive).

In the case of `c1ccc(/N=C2\S/C(=N\C3CCCCC3)N(C3CCCCC3)\C2=N/c2ccccc2)cc1`, the GI50 (BT-549) is reported as > 100 µM (inactive), the GI50 (DU-145) is reported as > 100 µM (inactive) and the GI50 (Hs-578T) is reported as > 100 µM (inactive). For the same compound, the GI50 (MDA-MB-231) was > 100 µM (inactive), the GI50 (MDA-N) was > 100 µM (inactive) and the GI50 (PC-3) was 67.1 µM (inactive). The GI50 (T47D) was > 100 µM (inactive).

For `c1ccc(COC2(OCc3ccccc3)CC3OC2C2NN=NC32)cc1` (configuration not stated), the GI50 (786-0) was 20 µM (inactive).

In the case of `CC1(C)COC(/C=C/C2=NC(C)(C)CO2)=N1`, the GI50 (BT-549) is reported as 23.1 µM (inactive), the GI50 (DU-145) is reported as 13 µM (inactive) and the GI50 (Hs-578T) is reported as < 0.01 µM (active). For the same compound, the GI50 (MDA-MB-231) was 19.7 µM (inactive), the GI50 (MDA-N) was 20.1 µM (inactive) and the GI50 (PC-3) was 17.5 µM (inactive). For the same compound, the GI50 (T47D) was 8.75 µM (inactive).
